Results on 21 molecules are retold here after patent publication US5945440A, “Indolocarbazole imides and the use thereof” (priority 1992, dated 1999).

As usually defined, the IC50 is the concentration at which inhibition is half-maximal.

Data set [1] has as its target T1, MLC kinase (myosin light-chain kinase) (Gallus gallus, UniProt P11799).
T1 construct: MLC kinase was purified from chicken stomach; from tissue; host or cells: chicken stomach (gizzard smooth muscle)
The data set can be described thus: inhibition of MLC kinase, in vitro enzyme test (32P phosphate incorporation). The data set is classed as biochemical, chicken (stomach). To be noted: for ratio of IC50 C-kinase/IC50 MLC-kinase: selectivity factor calculated from the IC50 values; for MLC kinase inhibition, in words: potency and selectivity vs protein kinase C.
Protocol: Inhibition of the enzyme MLC kinase (EC 3.6.1.3; kinase of the light myosin chain; myosin light-chain kinase).
The inhibition of MLC kinase was measured in an in vitro enzyme test.
The reaction was initiated by the addition of 1 nM MLC kinase. After incubation for 20 minutes at 30° C., the reaction was stopped with TCA and the samples then filtered off. The phosphate incorporation took place by means of Cerenkov counting of the filter.

For data set [2], the target named is protein kinase C. The data set can be described thus: inhibition of protein kinase C, enzyme test. It is filed as biochemical. To be noted: read-out: inhibition of the protein kinases, C-kinase IC50. The protocol: In order to ascertain whether it is a question of a selective inhibition of MLC kinase, the compounds were also investigated in other enzyme tests for protein kinase, including tests for protein kinase C. The results from the PKC test are also given in the following Table I. Furthermore, the Table contains selectivity factors which were calculated by the determination of the ratios of the IC50 values.

Data set [3] has as its system narcotised, spontaneously hypertensive rat (SHR). The data set can be described thus: anti-hypertensive action in narcotised spontaneously hypertensive rats, i.v. The data set is classed as in vivo. To be noted: for reduction of the average arterial blood pressure / reduction of the heart frequency: 60 minutes after administration, average ± SD. The protocol:
As test model, there was used the narcotised, spontaneously hypertensive rat (SHR). After intravenous administration of the inhibitor of MLC kinase, in each case 60 minutes after the administration of the compound, there were found the reductions of the average arterial blood pressure set out in the following Table 2.

Where [4] appears, read: 1 nM MLC kinase, 250 μM ATP, pH 7.2, 20 minutes at 30° C., read-out: inhibition of the protein kinases, MLC-kinase IC50.

Read-outs that look alike come from different tables or passages of the source.

T1 sequence (P11799 935-1906): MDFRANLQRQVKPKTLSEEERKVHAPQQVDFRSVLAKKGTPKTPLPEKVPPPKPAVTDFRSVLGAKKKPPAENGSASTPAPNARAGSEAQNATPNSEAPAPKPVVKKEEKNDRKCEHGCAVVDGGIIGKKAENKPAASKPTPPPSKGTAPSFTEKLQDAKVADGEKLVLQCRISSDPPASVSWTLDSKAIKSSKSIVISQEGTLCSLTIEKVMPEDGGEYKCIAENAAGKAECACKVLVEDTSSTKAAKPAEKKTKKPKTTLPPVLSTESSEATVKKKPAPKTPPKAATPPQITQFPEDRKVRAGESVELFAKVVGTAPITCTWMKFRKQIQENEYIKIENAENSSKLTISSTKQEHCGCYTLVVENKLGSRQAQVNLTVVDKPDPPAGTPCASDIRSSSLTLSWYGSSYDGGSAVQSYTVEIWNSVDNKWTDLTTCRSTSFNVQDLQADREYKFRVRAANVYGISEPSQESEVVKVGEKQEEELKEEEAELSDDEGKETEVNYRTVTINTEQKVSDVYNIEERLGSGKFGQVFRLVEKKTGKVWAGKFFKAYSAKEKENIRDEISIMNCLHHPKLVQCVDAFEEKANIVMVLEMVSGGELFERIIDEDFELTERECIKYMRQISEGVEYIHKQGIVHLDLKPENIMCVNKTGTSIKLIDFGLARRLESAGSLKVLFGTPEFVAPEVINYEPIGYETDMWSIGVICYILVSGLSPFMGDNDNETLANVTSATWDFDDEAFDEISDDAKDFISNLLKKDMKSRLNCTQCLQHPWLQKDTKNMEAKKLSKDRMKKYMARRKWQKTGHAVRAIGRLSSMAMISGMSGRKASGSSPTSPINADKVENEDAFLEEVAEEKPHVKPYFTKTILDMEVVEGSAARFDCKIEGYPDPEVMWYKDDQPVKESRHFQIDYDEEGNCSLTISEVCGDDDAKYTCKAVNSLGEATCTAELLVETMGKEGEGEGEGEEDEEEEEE

For `Cn1c2ccc(O)cc2c2c3c(c4c5ccccc5n(CCC#N)c4c21)C(=O)NC3=O` [Example 2a, 12-(2-cyanoethyl)-6,7,12,13-tetrahydro-3-hydroxy-13-methyl-5,7-dioxo-5H-indolo[2,3-a]pyrrolo[3,4-c]-carbazole], the IC50 in data set [1] (setting [4]) was 18 nM; in data set [2] it was 31 nM. Moreover, the “ratio of IC50 C-kinase/IC50 MLC-kinase” value in data set [1] is on record as 1.7.
As for `Cn1c2ccccc2c2c3c(c4c5cc(O)c(O)cc5n(CCC#N)c4c21)C(=O)NC3=O` [Example 2b, 13-(2-cyanoethyl)-6,7,12,13-tetrahydro-2,3-dihydroxy-12-methyl-5,7-dioxo-5H-indolo[2,3-a]pyrrolo[3,4-c]-carbazole], the IC50 was found to be 32 nM in data set [1] (setting [4]) and 230 nM in data set [2]. The “ratio of IC50 C-kinase/IC50 MLC-kinase” value in data set [1] is given as 7.2.
Consider `O=C1NC(=O)c2c1c1c3cc(O)ccc3[nH]c1c1[nH]c3ccc(O)cc3c21` [Example 2e, 6,7,12,13-tetrahydro-3,9-dihydroxy-5,1-dioxo-5H-indolo[2,3-a]pyrrolo[3,4-c]carbazole], for which the IC50 in data set [1] (setting [4]) was 5.7 nM; in data set [2] it was 7 nM. The “ratio of IC50 C-kinase/IC50 MLC-kinase” value in data set [1] is reported as 1.3.
Consider `Cn1c2ccc(O)cc2c2c3c(c4c5cc(O)ccc5n(CCC#N)c4c21)C(=O)NC3=O` [Example 2f, 12-(2-cyanoethyl)-6,7,12,13-tetrahydro-3,9-dihydroxy-13-methyl-5,7-dioxo-5H-indolo[2,3-a]pyrrolo-[3,4-c]carbazole], for which the IC50 in data set [1] (setting [4]) worked out at 10 nM; in data set [2] it was 4.2 nM. Further, the “ratio of IC50 C-kinase/IC50 MLC-kinase” value in data set [1] is given as 0.4.
With `CN(C)CCCn1c2ccc(O)cc2c2c3c(c4c5ccccc5n(C)c4c21)C(=O)NC3=O` [Example 2g, 13-(3-dimethylaminopropyl)-6,7,12,13-tetrahydro-3-hydroxy-12-methyl-5,7-dioxo-5H-indolo[2,3-a]pyrrolo-25 [3,4-c]carbazole], the IC50 in data set [1] (setting [4]) is 5 nM; in data set [2], 40 nM. Besides, in data set [1], the “ratio of IC50 C-kinase/IC50 MLC-kinase” value is 8.
Regarding `Cn1c2ccccc2c2c3c(c4c5ccccc5n(CCC[N+](C)(C)C)c4c21)C(=O)NC3=O` [Example 3, 12-(3-Dimethylaminopropyl)-6,7,12,13-tetrahydro-13-methyl-5,7-dioxo-5H-indolo[2,3-a]pyrrolo[3,4-c]-carbazole; methiodide], the IC50 was found to be 76 nM in data set [1] (setting [4]) and 190 nM in data set [2]. Also, in data set [1], the “ratio of IC50 C-kinase/IC50 MLC-kinase” value is listed as 2.5.
Turning to `Cn1c2ccccc2c2c3c(c4c5ccccc5n(CCCN)c4c21)C(=O)NC3=O` [Example 4, 12-(3-Aminopropyl)-6,7,12,13-tetrahydro-13-methyl-5,7-dioxo-5H-indolo[2,3-a]pyrrolo[3,4-c]carbazole], in data set [1] (setting [4]), the IC50 was determined as 1.2 nM. In data set [1], the “MLC kinase inhibition, in words” value was “potent and selective inhibitors of MLC kinase”; the “ratio of IC50 C-kinase/IC50 MLC-kinase” value was 33. For the same molecule, the 50% inhibitory concentration (IC50) in data set [2] came to 39 nM.
For the molecule `COc1ccc2c(c1)c1c3c(c4c5ccccc5n(C)c4c1n2CCCN)C(=O)NC3=O` [Example 4a, 13-(3-aminopropyl)-6,7,12,13-tetrahydro-3-methoxy-12-methyl-5,7-dioxo-5H-indolo[2,3-a]pyrrolo[3,4-c]-carbazole], the IC50 in data set [1] (setting [4]) was 4.9 nM. In addition, in data set [1], the “MLC kinase inhibition, in words” value is “potent and selective inhibitors of MLC kinase”; the “ratio of IC50 C-kinase/IC50 MLC-kinase” value is given as 74. The IC50 in data set [2] worked out at 360 nM.
Consider `COc1ccc2c(c1)c1c3c(c4c5cc(Cl)ccc5n(CCCN)c4c1n2C)C(=O)NC3=O` [Example 4b, 13-(3-aminopropyl)-3-chloro-6,7,12,13-tetrahydro-9-methoxy-12-methyl-5,7-dioxo-5H-indolo[2,3-a]pyrrolo-[3,4-c]carbazole], for which the IC50 in data set [1] (setting [4]) worked out at 1.5 nM. Also, in data set [1], the “MLC kinase inhibition, in words” value was “potent and selective inhibitors of MLC kinase”; the “ratio of IC50 C-kinase/IC50 MLC-kinase” value is given as 23. The 50% inhibitory concentration (IC50) in data set [2] is 34 nM.
In the case of `CC(C)NCCCn1c2ccccc2c2c3c(c4c5ccccc5n(C)c4c21)C(=O)NC3=O` [Example 4c, 13-(3-isopropylaminopropyl)-6,7,12,13-tetrahydro-13-methyl-5,7-dioxo-5H-indolo[2,3-a]pyrrolo[3,4-c]-carbazole], the 50% inhibitory concentration (IC50) in data set [1] (setting [4]) was 21 nM; in data set [2], 53 nM. In addition, the “ratio of IC50 C-kinase/IC50 MLC-kinase” value in data set [1] is listed as 2.5.
On to `NC(=O)CCn1c2ccccc2c2c3c(c4c5ccccc5[nH]c4c21)C(=O)NC3=O` [Example 5, 12-(2-Carbamoylethyl)-6,7,12,13-tetrahydro-5,7-dioxo-5H-indolo[2,3-a]pyrrolo[3,4-c]carbazole], for which the results for the IC50 in data set [1] (setting [4]) and in data set [2] were 3.7 nM and 87 nM, respectively. In data set [1], the “MLC kinase inhibition, in words” value was “potent and selective inhibitors of MLC kinase”. The “ratio of IC50 C-kinase/IC50 MLC-kinase” value in data set [1] was 24. In addition, the “reduction of the average arterial blood pressure” value turned out to be 15 ± 5% in data set [3] (1 mg/kg i.v.), 23 ± 3% in data set [3] (3 mg/kg i.v.) and 40 ± 8% in data set [3] (10 mg/kg i.v.). Besides, the “reduction of the heart frequency” value is 3 ± 3% in data set [3] (1 mg/kg i.v.), 7 ± 4% in data set [3] (3 mg/kg i.v.) and 4 ± 3% in data set [3] (10 mg/kg i.v.). The “anti-hypertensive action, in words” value in data set [3] (i.v.) was “dosage-dependent anti-hypertensive action could be demonstrated”. Moreover, the “influencing of the heart frequency, in words” value in data set [3] (i.v.) was “scarcely observable”.
As to `COc1ccc2[nH]c3c(c4c(c5c6cc(OC)ccc6n(CCCN(C)C)c35)C(=O)NC4=O)c2c1` [Example 7, 12-(3-Dimethylaminopropyl)-6,7,12,13-tetrahydro-3,9-dimethoxy-5,7-dioxo-5H-indolo[2,3-a]pyrrolo[3,4-c]-carbazole], the IC50 in data set [1] (setting [4]) came out at 40 nM; in data set [2], 380 nM. The “ratio of IC50 C-kinase/IC50 MLC-kinase” value in data set [1] is 9.5.
Turning to `CN(C)CCCn1c2ccccc2c2c3c(c4c5ccccc5[nH]c4c21)C(=O)NC3=O` [Example 7a, 13-(3-dimethylaminopropyl)-6,7,12,13-tetrahydro-5,7-dioxo-5H-indolo[2,3-a]pyrrolo[3,4-c]carbazole], the figures for the IC50 in data set [1] (setting [4]) and in data set [2] were 52 nM and 530 nM, respectively. In addition, the “ratio of IC50 C-kinase/IC50 MLC-kinase” value in data set [1] is on record as 10.
Turning to `COc1ccc2[nH]c3c(c4c(c5c6cc(OC)ccc6n(C)c35)C(=O)NC4=O)c2c1` [Example 7b, 6,7,12,13-tetrahydro-3,9-dimethoxy-12-methyl-5,7-dioxo-5H-indolo[2,3-a]pyrrolo[3,4-c]carbazole], the IC50 in data set [1] (setting [4]) was 8.7 nM; in data set [2] it was > 10000 nM. Moreover, the “MLC kinase inhibition, in words” value in data set [1] was “potent and selective inhibitors of MLC kinase”. Further, the “ratio of IC50 C-kinase/IC50 MLC-kinase” value in data set [1] was > 1149.
As for `COc1ccc2[nH]c3c(c4c(c5c6ccccc6n(C)c35)C(=O)NC4=O)c2c1` [Example 7d, 6,7,12,13-tetrahydro-3-methoxy-12-methyl-5,7-dioxo-5H-indolo[2,3-a]pyrrolo[3,4-c]carbazole], the values for the 50% inhibitory concentration (IC50) in data set [1] (setting [4]) and in data set [2] were 8.4 nM and 25 nM, respectively. The “ratio of IC50 C-kinase/IC50 MLC-kinase” value in data set [1] is reported as 3.0.
Consider `O=C1NC(=O)c2c1c1c3ccccc3[nH]c1c1c2c2ccccc2n1CC(O)CO` (centres unmarked) [Example 8, 12-(2,3-Dihydroxy-1-propyl)-6,7,12,13-tetrahydro-5,7-dioxo-5H-indolo[2,3-a]pyrrolo[3,4-c]carbazole], for which the IC50 in data set [1] (setting [4]) was 5.2 nM; in data set [2], 59 nM. In data set [1], the “ratio of IC50 C-kinase/IC50 MLC-kinase” value is recorded as 11.3.
As to `O=C1NC(=O)c2c1c1c3ccccc3[nH]c1c1[nH]c3ccccc3c21` [Example 11a, 6,7,12,13-tetrahydro-5,7-dioxo-5H-indolo[2,3-a]pyrrolo[3,4-c]carbazole], in data set [1], half-maximal inhibition (IC50) was put at 420 nM and the “ratio of IC50 C-kinase/IC50 MLC-kinase” value is on record as 4.5. Further, in data set [2], the half-inhibitory concentration (IC50) stood at 1900 nM.
For `COc1ccc2[nH]c3c4[nH]c5ccccc5c4c4c(c3c2c1)C(=O)NC4=O` [Example 11b, 6,7,12,13-tetrahydro-3-methoxy-5,7-dioxo-5H-indolo[2,3-a]pyrrolo[3,4-c]carbazole], the IC50 worked out at 60 nM in data set [1] (setting [4]) and 280 nM in data set [2]. In addition, the “ratio of IC50 C-kinase/IC50 MLC-kinase” value in data set [1] was 4.7.
As for `O=C1NC(=O)c2c1c1c3ccccc3[nH]c1c1[nH]c3cc(Cl)ccc3c21` [Example 11c, 2-chloro-6,7,12,13-tetrahydro-5,7-dioxo-5H-indolo[2,3-a]pyrrolo[3,4-c]carbazole], the IC50 stood at 86 nM in data set [1] (setting [4]) and 4000 nM in data set [2]. Moreover, the “MLC kinase inhibition, in words” value in data set [1] is “potent and selective inhibitors of MLC kinase”. The “ratio of IC50 C-kinase/IC50 MLC-kinase” value in data set [1] was 47.
Turning to `Cc1ccc2[nH]c3c4[nH]c5ccc(C)cc5c4c4c(c3c2c1)C(=O)NC4=O` [Example 11e, 6,7,12,13-tetrahydro-3,9-dimethyl-5,7-dioxo-5H-indolo[2,3-a]pyrrolo[3,4-c]carbazole], the figures for the IC50 in data set [1] (setting [4]) and in data set [2] were 600 nM and > 10000 nM, respectively. In addition, the “ratio of IC50 C-kinase/IC50 MLC-kinase” value in data set [1] is > 17.
For the molecule `O=C1NC(=O)c2c1c1c3cc(Br)ccc3[nH]c1c1[nH]c3ccc(Br)cc3c21` [Example 11g, 3,9-dibromo-6,7,12,13-tetrahydro-5,7-dioxo-5H-indolo[2,3-a]pyrrolo[3,4-c]carbazole], the concentration for half-maximal inhibition (IC50) worked out at 370 nM in data set [1] (setting [4]) and 4600 nM in data set [2]. In addition, in data set [1], the “ratio of IC50 C-kinase/IC50 MLC-kinase” value is on record as 12.
